Data as given in US4957923A, “Diuretic or antihypertensive composition” (Fujisawa Pharmaceutical Co., Ltd., priority 1988, dated 1990).

Legend:
[1] = test system: DOCA hypertensive rats; experiment: Antihypertension action (DOCA hypertensive rats); type: in vivo, rat (Wistar)
Method: Male Wistar rats, 10 weeks old, were subjected to left nephrectomy and 2 to 4 days after operation, deoxycorticosterone acetate was administered subcutaneously in a dose of 30 mg/ml/kg twice a week. The animals were given 1% saline for drinking water and the individuals showing a mean blood pressure of ≥150 mmHg at 15 weeks of age were submitted to the experiment. After catheterization, saline for drinking water was replaced with tap water. At the beginning of the experiment, the test rats had mean blood pressures from 152 to 204 mmHg, heart rates from 354 to 462 beats/min. and body weights from 232 to 318 g. 3~5 Animals per group were used.
3 Or 4 days before the beginning of the experiment, one end of a catheter for blood pressure measurement was passed from the femoral artery to the abdominal aorta of each rat and the other end was passed beneath the skin and fixed in exposed position in the dorsocervical region. The drug was orally administered once a day for 5 consecutive days. The rats had been deprived of food for about 3 hours before drug administration. The blood pressure was measured before administration and 5 hours after administration of days 1, 3 and 5. At each blood pressure measurement, the mean blood pressure was observed via a pressure transducer connected to the dorsocervical end of the catheter for blood pressure measurement and the stabilized mean blood pressure was recorded.
Drug was suspended and diluted using a 0.5% solution of methylcellulose and 5ml/kg of the suspension was orally administered.

[2] = test system: healthy male adult volunteers; experiment: Antihypertensive action (human); type: in vivo; conditions: mean ± S.D.
Method: To 6 healthy male adult volunteers, 150 mg of compound A (one capsule each of capsules shown in Examples 1 and 2 below) was orally administered twice a day at a 12-hour interval from 30 minutes after breakfast to 2 hours after supper for 8 consecutive days (except on day 8 when the administration was made only once in the morning) and the systolic blood pressure in standing position was measured.

[3] = test system: healthy male adult volunteers; experiment: Diuretic action (human); type: in vivo; conditions: mean ± S.D.
Method: To healthy male adult volunteers, 300 mg (the capsule of Example 3 below ×1) (6 men) or 600 mg (the capsule of Example 3 below ×2) (6 men) of compound A was orally […] administered in fasting condition, or 600 mg (the capsule of Example 3 below×2) (6 men) of compound A was orally administered 30 minutes after breakfast. In each group, the 24-hr urine volume before administration and that on day 1 after administration were respectively determined.

[4] = 3.2 mg/kg p.o. once a day, Day 1 before administration (baseline)
[5] = 3.2 mg/kg p.o. once a day, Day 3 after 5 hr
[6] = 3.2 mg/kg p.o. once a day, Day 3 before administration
[7] = 3.2 mg/kg p.o. once a day, Day 5 after 5 hr
[8] = 3.2 mg/kg p.o. once a day, Day 5 before administration
[9] = 10 mg/kg p.o. once a day, Day 1 after 5 hr
[10] = 10 mg/kg p.o. once a day, Day 1 before administration (baseline)
[11] = 10 mg/kg p.o. once a day, Day 3 after 5 hr
[12] = 10 mg/kg p.o. once a day, Day 3 before administration
[13] = 10 mg/kg p.o. once a day, Day 5 after 5 hr
[14] = 10 mg/kg p.o. once a day, Day 5 before administration
[15] = 32 mg/kg p.o. once a day, Day 1 after 5 hr
[16] = 32 mg/kg p.o. once a day, Day 1 before administration (baseline)
[17] = 32 mg/kg p.o. once a day, Day 3 after 5 hr
[18] = 32 mg/kg p.o. once a day, Day 3 before administration
[19] = 32 mg/kg p.o. once a day, Day 5 after 5 hr
[20] = 32 mg/kg p.o. once a day, Day 5 before administration

## O=C(O)Cn1c(=O)n(Cc2ccc(Br)cc2F)c(=O)c2ccc(Cl)cc21 [Compound A, 2-[7-Chloro-3-(4-bromo-2-fluorobenzyl)-1,2,3,4-tetrahydro-2,4-dioxoquinazolin-1-yl]acetic acid]
[1]; 3.2 mg/kg p.o. once a day, Day 1 after 5 hr
  Mean blood pressure: 148 mm Hg
[1]; [4]
  Mean blood pressure: 175 mm Hg
  Percentage of change (mean blood pressure): 0.0%
[1]; [5]
  Mean blood pressure: 142 mm Hg
  Percentage of change (mean blood pressure): -18.6%
[1]; [6]
  Mean blood pressure: 153 mm Hg
  Percentage of change (mean blood pressure): -13.4%
[1]; [7]
  Mean blood pressure: 131 mm Hg
  Percentage of change (mean blood pressure): -24.9%
[1]; [8]
  Mean blood pressure: 139 mm Hg
  Percentage of change (mean blood pressure): -21.0%
[1]; [9]
  Mean blood pressure: 145 mm Hg
  Percentage of change (mean blood pressure): -13.0%
[1]; [10]
  Mean blood pressure: 166 mm Hg
  Percentage of change (mean blood pressure): 0.0%
[1]; [11]
  Mean blood pressure: 127 mm Hg
  Percentage of change (mean blood pressure): -23.1%
[1]; [12]
  Mean blood pressure: 137 mm Hg
  Percentage of change (mean blood pressure): -17.2%
[1]; [13]
  Mean blood pressure: 118 mm Hg
  Percentage of change (mean blood pressure): -29.1%
[1]; [14]
  Mean blood pressure: 127 mm Hg
  Percentage of change (mean blood pressure): -23.2%
[1]; [15]
  Mean blood pressure: 133 mm Hg
  Percentage of change (mean blood pressure): -20.1%
[1]; [16]
  Mean blood pressure: 168 mm Hg
  Percentage of change (mean blood pressure): 0.0%
[1]; [17]
  Mean blood pressure: 132 mm Hg
  Percentage of change (mean blood pressure): -20.1%
[1]; [18]
  Mean blood pressure: 133 mm Hg
  Percentage of change (mean blood pressure): -19.2%
[1]; [19]
  Mean blood pressure: 116 mm Hg
  Percentage of change (mean blood pressure): -30.2%
[1]; [20]
  Mean blood pressure: 117 mm Hg
  Percentage of change (mean blood pressure): -29.5%
[2]; 150 mg p.o. twice a day for 8 days, Day 9 immediately before breakfast
  Systolic blood pressure in standing position: 113 ± 3 mmHg
[2]; 150 mg p.o. twice a day for 8 days, Day 10 immediately before breakfast
  Systolic blood pressure in standing position: 117 ± 6 mmHg
[2]; 150 mg p.o. twice a day, Day 1 immediately before breakfast (before first dose, baseline)
  Systolic blood pressure in standing position: 121 ± 8 mmHg
[2]; 150 mg p.o. twice a day, Day 2 immediately before breakfast
  Systolic blood pressure in standing position: 113 ± 6 mmHg
[2]; 150 mg p.o. twice a day, Day 3 immediately before breakfast
  Systolic blood pressure in standing position: 114 ± 7 mmHg
[2]; 150 mg p.o. twice a day, Day 4 immediately before breakfast
  Systolic blood pressure in standing position: 114 ± 5 mmHg
[2]; 150 mg p.o. twice a day, Day 5 immediately before breakfast
  Systolic blood pressure in standing position: 110 ± 8 mmHg
[2]; 150 mg p.o. twice a day, Day 6 immediately before breakfast
  Systolic blood pressure in standing position: 114 ± 6 mmHg
[2]; 150 mg p.o. twice a day, Day 7 immediately before breakfast
  Systolic blood pressure in standing position: 116 ± 8 mmHg
[2]; 150 mg p.o. twice a day, Day 8 immediately before breakfast
  Systolic blood pressure in standing position: 117 ± 5 mmHg
[3]; 300 mg p.o., without breakfast, 0-2 hr
  Urine volume: 95 ± 57 mL
[3]; 300 mg p.o., without breakfast, 2-4 hr
  Urine volume: 136 ± 60 mL
[3]; 300 mg p.o., without breakfast, 4-8 hr
  Urine volume: 328 ± 55 mL
[3]; 300 mg p.o., without breakfast, 8-12 hr
  Urine volume: 340 ± 79 mL
[3]; 300 mg p.o., without breakfast, 12-24 hr
  Urine volume: 609 ± 147 mL
[3]; 300 mg p.o., without breakfast, -24-0 hr (before administration, baseline)
  Urine volume: 902 ± 256 mL
[3]; 300 mg p.o., without breakfast, total 0-24 hr
  Urine volume: 1508 ± 274 mL
[3]; 600 mg p.o., 30 min after breakfast, 0-2 hr
  Urine volume: 130 ± 46 mL
[3]; 600 mg p.o., 30 min after breakfast, 2-4 hr
  Urine volume: 151 ± 19 mL
[3]; 600 mg p.o., 30 min after breakfast, 4-8 hr
  Urine volume: 414 ± 161 mL
[3]; 600 mg p.o., 30 min after breakfast, 8-12 hr
  Urine volume: 507 ± 139 mL
[3]; 600 mg p.o., 30 min after breakfast, 12-24 hr
  Urine volume: 829 ± 240 mL
[3]; 600 mg p.o., 30 min after breakfast, -24-0 hr (before administration, baseline)
  Urine volume: 1234 ± 212 mL
[3]; 600 mg p.o., 30 min after breakfast, total 0-24 hr
  Urine volume: 2031 ± 362 mL
[3]; 600 mg p.o., without breakfast, 0-2 hr
  Urine volume: 64 ± 24 mL
[3]; 600 mg p.o., without breakfast, 2-4 hr
  Urine volume: 82 ± 32 mL
[3]; 600 mg p.o., without breakfast, 4-8 hr
  Urine volume: 292 ± 50 mL
[3]; 600 mg p.o., without breakfast, 8-12 hr
  Urine volume: 393 ± 141 mL
[3]; 600 mg p.o., without breakfast, 12-24 hr
  Urine volume: 863 ± 253 mL
[3]; 600 mg p.o., without breakfast, -24-0 hr (before administration, baseline)
  Urine volume: 982 ± 293 mL
[3]; 600 mg p.o., without breakfast, total 0-24 hr
  Urine volume: 1693 ± 368 mL
